Here are results for 22 compounds from US20230374034A1, “NOVEL BICYCLIC COMPOUNDS” (PRISM BIOLAB CO., LTD., priority 2020, published 2023).

This assay deals with NICD (Notch intracellular domain) CSL-bla reporter in HeLa cells. Kind of assay: Notch assay (CellSensor T-REx NICD CSL-bla HeLa beta-lactamase reporter; Method 1 / Method 2). It counts as cell-based. The conditions noted are these: Homo sapiens, 10 μM compound, Method 2 (40 nL of 1000× compound added to plate with Echo), read-out: inhibiton (%) at 10 μM. An outline of the steps:
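HeLa cells carrying doxycycline-inducible NICD and a CSL-driven beta-lactamase reporter, 10^3 cells/well, were treated with compound plus doxycycline for 16-20 h at 37 °C. CCF4-AM substrate was loaded for 4 h at room temperature; background-subtracted blue (460 nm)/green (530 nm) emission ratio taken per well.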
Take `CC(C)CCOC(=O)N1O[C@H](Cc2ccc(O)cc2)C(=O)N2C1CN([C@@H](Cc1ccc(O)cc1)C(=O)NCCc1ccccc1)C(=O)[C@@H]2Cc1ccc(O)cc1` (stereo partly drawn) [Compound I-117, isopentyl (3R,6S)-3,6-bis(4-hydroxybenzyl)-8-((S)-3-(4-hydroxyphenyl)-1-oxo-1-(phenethylamino)propan-2-yl)-4,7-dioxohexahydropyrazino[2,1-c][1,2,4]oxadiazine-1(6H)-carboxylate]: the inhibition at 10 µM came out at 59.7%.
The same measure for `CCCCCOC(=O)N1O[C@H](Cc2ccc(O)cc2)C(=O)N2C1CN([C@@H](Cc1ccc(O)cc1)C(=O)NCCc1ccccc1)C(=O)[C@@H]2Cc1ccc(O)cc1` (stereo partly drawn) [Compound I-118, pentyl (3R,6S)-3,6-bis(4-hydroxybenzyl)-8-((S)-3-(4-hydroxyphenyl)-1-oxo-1-(phenethylamino)propan-2-yl)-4,7-dioxohexahydropyrazino[2,1-c][1,2,4]oxadiazine-1(6H)-carboxylate]: 63.3%.
For `CCCC[C@@H](C(=O)NCCc1ccccc1)N1CC2N(C(=O)OCCc3ccc(O)cc3)O[C@H](Cc3ccc(O)cc3)C(=O)N2[C@@H](Cc2ccc(O)cc2)C1=O` (stereo partly drawn) [Compound I-119, 4-hydroxyphenethyl (3R,6S)-3,6-bis(4-hydroxybenzyl)-4,7-dioxo-8-((S)-1-oxo-1-(phenethylamino)hexan-2-yl)hexahydropyrazino[2,1-c][1,2,4]oxadiazine-1(6H)-carboxylate] the value was 55.7%; for `CC(C)CCNC(=O)[C@H](CC(C)C)N1CC2N(C(=O)OCCc3ccc(O)cc3)O[C@H](Cc3ccccc3)C(=O)N2[C@@H](C)C1=O` (stereo partly drawn) [Compound I-120, 4-hydroxyphenethyl (3R,6S)-3-benzyl-8-((S)-1-(isopentylamino)-4-methyl-1-oxopentan-2-yl)-6-methyl-4,7-dioxohexahydropyrazino [2,1-c][1,2,4]oxadiazine-1(6H)-carboxylate], 67.1%; for `CC(C)C[C@@H](C(=O)NCCc1ccccc1)N1CC2N(C(=O)OCCc3ccc(O)cc3)O[C@H](Cc3ccccc3)C(=O)N2[C@@H](C)C1=O` (stereo partly drawn) [Compound I-121, 4-hydroxyphenethyl (3R,6S)-3-benzyl-6-methyl-8-((S)-4-methyl-1-oxo-1-(phenethylamino)pentan-2-yl)-4,7-dioxohexahydropyrazino [2,1-c][1,2,4]oxadiazine-1(6H)-carboxylate], 63.3%.
The same measure for `CCCC[C@@H](C(=O)NCCCC(C)C)N1CC2N(C(=O)OCCc3ccc(O)cc3)O[C@H](Cc3ccccc3)C(=O)N2[C@@H](C)C1=O` (stereo partly drawn) [Compound I-122, 4-hydroxyphenethyl (3R,6S)-3-benzyl-6-methyl-8-((S)-1-((4-methylpentyl)amino)-1-oxohexan-2-yl)-4,7-dioxohexahydropyrazino [2,1-c][1,2,4]oxadiazine-1(6H)-carboxylate]: 79.9%; for `CC(C)C[C@H]1ON(C(=O)OCCc2ccccc2)C2CN([C@@H](Cc3ccccc3)C(=O)NCCCc3ccccc3)C(=O)[C@H](CCC(N)=O)N2C1=O` (stereo partly drawn) [Compound I-123, phenethyl (3R,6S)-6-(3-amino-3-oxopropyl)-3-isobutyl-4,7-dioxo-8-((S)-1-oxo-3-phenyl-1-((3-phenylpropyl)amino)propan-2-yl)hexahydropyrazino[2,1-c][1,2,4]oxadiazine-1(6H)-carboxylate]: 52.3%; for `CCCC[C@@H](C(=O)NCCCc1ccccc1)N1CC2N(C(=O)OCCc3ccccc3)O[C@H](CC(C)C)C(=O)N2[C@@H](CCC(N)=O)C1=O` (stereo partly drawn) [Compound I-124, phenethyl (3R,6S)-6-(3-amino-3-oxopropyl)-3-isobutyl-4,7-dioxo-8-((S)-1-oxo-1-((3-phenylpropyl)amino)hexan-2-yl)hexahydropyrazino[2,1-c][1,2,4]oxadiazine-1(6H)-carboxylate]: 57.1%.
With `NC(=O)CC[C@H]1C(=O)N([C@@H](Cc2ccccc2)C(=O)NCCCc2ccccc2)CC2N(C(=O)OCCc3ccccc3)O[C@H](Cc3ccccc3)C(=O)N21` (stereo partly drawn) [Compound I-125, phenethyl (3R,6S)-6-(3-amino-3-oxopropyl)-3-benzyl-4,7-dioxo-8-((S)-1-oxo-3-phenyl-1-((3-phenylpropyl)amino)propan-2-yl)hexahydropyrazino [2,1-c][1,2,4]oxadiazine-1(6H)-carboxylate], the inhibition at 10 µM was found to be 59.6%.
The same measure for `NC(=O)CC[C@H]1C(=O)N([C@@H](Cc2ccccc2)C(=O)NCCCc2ccccc2)CC2N(C(=O)OCCc3ccc(O)cc3)O[C@H](Cc3ccccc3)C(=O)N21` (stereo partly drawn) [Compound I-126, 4-hydroxyphenethyl (3R,6S)-6-(3-amino-3-oxopropyl)-3-benzyl-4,7-dioxo-8-((S)-1-oxo-3-phenyl-1-((3-phenylpropyl)amino)propan-2-yl)hexahydropyrazino [2,1-c][1,2,4]oxadiazine-1(6H)-carboxylate]: 67.2%; for `CCCCCOC(=O)N1O[C@H](Cc2ccccc2)C(=O)N2C1CN([C@@H](CC(C)C)C(=O)NCCCc1ccc(O)cc1)C(=O)[C@@H]2CCC(N)=O` (stereo partly drawn) [Compound I-127, pentyl (3R,6S)-6-(3-amino-3-oxopropyl)-3-benzyl-8-((S)-1-((3-(4-hydroxyphenyl)propyl)amino)-4-methyl-1-oxopentan-2-yl)-4,7-dioxohexahydropyrazino [2,1-c][1,2,4]oxadiazine-1(6H)-carboxylate]: 62.1%; for `CC(C)C[C@H]1ON(C(=O)OCC2CCCCC2)C2CN(C3CCNCC3)C(=O)[C@H](CC(C)C)N2C1=O` (stereo partly drawn) [Compound I-135, cyclohexylmethyl (3R,6S)-3,6-diisobutyl-4,7-dioxo-8-(piperidin-4-yl)hexahydropyrazino[2,1-c][1,2,4]oxadiazine-1(6H)-carboxylate]: 110%.
The same measure for `CC(C)C[C@H]1ON(C(=O)OCc2cccc3ccccc23)C2CN(C3CCNCC3)C(=O)[C@H](CC(C)C)N2C1=O` (stereo partly drawn) [Compound I-136, naphthalen-1-ylmethyl (3R,6S)-3,6-diisobutyl-4,7-dioxo-8-(piperidin-4-yl)hexahydropyrazino[2,1-c][1,2,4]oxadiazine-1(6H)-carboxylate]: 79.7%; for `CC(C)C[C@H]1ON(C(=O)OCc2cccc3ccccc23)C2CN(C3CCN(C)CC3)C(=O)[C@H](CC(C)C)N2C1=O` (stereo partly drawn) [Compound I-137, naphthalen-1-ylmethyl (3R,6S)-3,6-diisobutyl-8-(1-methylpiperidin-4-yl)-4,7-dioxohexahydropyrazino[2,1-c][1,2,4]oxadiazine-1(6H)-carboxylate]: 81.8%; for `CC(C)C[C@H]1C(=O)N(C2CCN(C)CC2)CC2N(C(=O)OCc3ccccc3)O[C@H](CC3CCCCC3)C(=O)N21` (stereo partly drawn) [Compound I-138, benzyl (3R,6S)-3-(cyclohexylmethyl)-6-isobutyl-8-(1-methylpiperidin-4-yl)-4,7-dioxohexahydropyrazino[2,1-c][1,2,4]oxadiazine-1(6H)-carboxylate]: 98.2%.
For `CN1CCC(N2CC3N(C(=O)OCc4ccccc4)O[C@H](CC4CCCCC4)C(=O)N3[C@@H](CC3CCCCC3)C2=O)CC1` (stereo partly drawn) [Compound I-139, benzyl (3R,6S)-3,6-bis (cyclohexylmethyl)-8-(1-methylpiperidin-4-yl)-4,7-dioxohexahydropyrazino [2,1-c][1,2,4]oxadiazine-1(6H)-carboxylate] the value was 116%.
With `CC(C)C[C@H]1ON(C(=O)OCc2ccccc2)C2CN(C3CCN(C)CC3)C(=O)[C@H](CC3CCCCC3)N2C1=O` (stereo partly drawn) [Compound I-140, benzyl (3R,6S)-6-(cyclohexylmethyl)-3-isobutyl-8-(1-methylpiperidin-4-yl)-4,7-dioxohexahydropyrazino [2,1-c][1,2,4]oxadiazine-1(6H)-carboxylate], the inhibition at 10 µM came out at 60.9%.
As to `CC(C)C[C@H]1C(=O)N(C2CCN(C)CC2)CC2N(CCCc3ccccc3)O[C@H](CC3CCCCC3)C(=O)N21` (stereo partly drawn) [Compound I-141, (3R,6S)-3-(cyclohexylmethyl)-6-isobutyl-8-(1-methylpiperidin-4-yl)-1-(3-phenylpropyl) tetrahydropyrazino [2,1-c][1,2,4]oxadiazine-4,7(3H,6H)-dione], the inhibition at 10 µM was 83.1%.
The same measure for `CCCCCC[C@H]1C(=O)N(C2CCN(C)CC2)C[C@@H]2N(CCCc3ccccc3)O[C@H](CC(C)C)C(=O)N21` [Compound I-142, (3R,6S,9aS)-6-hexyl-3-isobutyl-8-(1-methylpiperidin-4-yl)-1-(3-phenylpropyl) tetrahydropyrazino [2,1-c][1,2,4]oxadiazine-4,7(3H,6H)-dione]: 113%; for `CC(C)C[C@H]1ON(CCCc2ccccc2)C2CN(C3CCN(C)CC3)C(=O)[C@H](CC3CCCCC3)N2C1=O` (stereo partly drawn) [Compound I-143, (3R,6S)-6-(cyclohexylmethyl)-3-isobutyl-8-(1-methylpiperidin-4-yl)-1-(3-phenylpropyl) tetrahydropyrazino [2,1-c][1,2,4]oxadiazine-4,7(3H,6H)-dione]: 105%; for `CC(C)C[C@H]1ON(C(=O)OCc2ccccc2)C2CN(C3CCN(C)CC3)C(=O)[C@H](CCCCN(Cc3ccccc3)Cc3ccccc3)N2C1=O` (stereo partly drawn) [Compound I-144, benzyl (3R,6S)-6-(4-(dibenzylamino)butyl)-3-isobutyl-8-(1-methylpiperidin-4-yl)-4,7-dioxohexahydropyrazino [2,1-c][1,2,4]oxadiazine-1(6H)-carboxylate]: 78.1%.
As for `CC(C)C[C@H]1ON(C(=O)OCc2ccccc2)[C@H]2CN(C3CCN(C)CC3)C(=O)[C@H](CCCCNCc3ccc4ccccc4n3)N2C1=O` [Compound I-145, benzyl (3R,6S,9aS)-3-isobutyl-8-(1-methylpiperidin-4-yl)-4,7-dioxo-6-(4-((quinolin-2-ylmethyl)amino)butyl) hexahydropyrazino[2,1-c][1,2,4]oxadiazine-1(6H)-carboxylate], the inhibition at 10 µM is 89%.
